The values that follow come from ChEMBL document CHEMBL5528035, “Design, Synthesis, and Biological Evaluation for First GPX4 and CDK Dual Inhibitors” (J Med Chem, 2024).

pIC50: −log10 of the molar value.

The test system of assay [1] is MDA-MB-231. Put plainly: cells. The following applies: Homo sapiens, MDA-MB-231, 48 h.
Description: Antiproliferative activity against human MDA-MB-231 cells assessed as inhibition of cell growth incubated for 48 hrs by CCK-8 assay
Assay [2] deals with HCT-116. Put plainly: cells. Conditions: Homo sapiens, HCT-116, 48 h.
Description: Antiproliferative activity against human HCT-116 cells assessed as inhibition of cell growth incubated for 48 hrs by CCK-8 assay
The subject of assay [3] is A549. Put plainly: cells. The following applies: Homo sapiens, A549, 48 h.
Description: Antiproliferative activity against human A549 cells assessed as inhibition of cell growth incubated for 48 hrs by CCK-8 assay
Assay [4] deals with HepG2. Put plainly: cells. The following applies: Homo sapiens, HepG2, 48 h.
Description: Antiproliferative activity against human HepG2 cells assessed as inhibition of cell growth incubated for 48 hrs by CCK-8 assay
Assay [5] deals with CDK2/Cyclin A2 (Homo sapiens) (UniProt P24941+P20248). Put plainly: Inhibition of CDK2/CyclinA2 (unknown origin) at 100 nM preincubated for 15 mins followed by substrate and ATP addition incubated for 10 mins by ADP-glo luminescent assay relative to control. The class given is protein-complex assay. Conditions: time 25.0 min.
Assay [6] has as its target CDK6/cyclin D3 (Homo sapiens) (UniProt P30281+Q00534). In words: Inhibition of CDK6/CyclinD3 (unknown origin) at 100 nM preincubated for 15 mins followed by substrate and ATP addition incubated for 10 mins by ADP-glo luminescent assay relative to control. The class given is protein-complex assay. The following applies: time 25.0 min. (In general: ADP-Glo turns the ADP formed in a reaction into a luminescent signal.)

Consider `COc1ccc2c(c1)/C(=C1/Nc3ccccc3/C1=N\OCCCNC(=O)CCn1cc(COc3ccc(N(C(=O)CCl)C(C(=O)NCCc4ccccc4)c4cccs4)cc3Cl)nn1)C(=O)N2` (stereo not drawn), for which the pIC50 (as a rule, −log10 of the IC50, conventionally taken in molar units) in assay [1] is 5.70; in assay [2], 5.71; in assay [3], 5.39; in assay [4] it was 5.33. The inhibition (as a rule, the relative decrease from the control value, in per cent) in assay [5] came out at 26.6%; in assay [6] it was 40%.

Regarding `O=C(CCn1cc(COc2ccc(N(C(=O)CCl)C(C(=O)NCCc3ccccc3)c3cccs3)cc2Cl)nn1)NCCCO/N=C1/C(=C2/C(=O)Nc3cc(Br)ccc32)Nc2ccccc21` (stereo not drawn), the pIC50 in assay [1] was 5.06; in assay [2] it was less than 5.00; in assay [3], less than 5.00; in assay [4] it was less than 5.00. Moreover, the inhibition in assay [5] is 22.4%; in assay [6], 28.3%.

Turning to `O=C(CCn1cc(COc2ccc(N(C(=O)CCl)C(C(=O)NCCc3ccccc3)c3cccs3)cc2Cl)nn1)NCCCO/N=C1/C(=C2/C(=O)Nc3cc(Cl)c(Cl)cc32)Nc2ccccc21` (stereo not drawn), the negative logarithm of the IC50 (pIC50) in assay [1], in assay [2], in assay [3] and in assay [4] was less than 5.00 in each case. Besides, the figures for the inhibition in assay [5] and in assay [6] were 14% and 12.8%, respectively.

In the case of `O=C(CCn1cc(COc2ccc(N(C(=O)CCl)C(C(=O)NCCc3ccccc3)c3cccs3)cc2Cl)nn1)O/N=C1/C(=C2/C(=O)Nc3ccccc32)Nc2cc(Cl)ccc21` (stereo not drawn), the pIC50 in assay [1] was 5.11; in assay [2] it was 5.14; in assay [3], 5.20; in assay [4], 5.12. In addition, the inhibition in assay [5] came to 8.53%; in assay [6], 37.1%.

As to `O=C(CCn1cc(COc2ccc(N(C(=O)CCl)C(C(=O)NCCc3ccccc3)c3cccs3)cc2Cl)nn1)NCCCO/N=C1/C(=C2/C(=O)Nc3cc(Cl)ccc32)Nc2ccccc21` (stereo not drawn), the negative-log IC50 (pIC50) in assay [1] is 5.13; in assay [2] it was 5.14; in assay [3], 5.04; in assay [4], 5.05. In addition, the inhibition in assay [5] came to 31%; in assay [6], 38.5%.

Take `O=C(CCn1cc(COc2ccc(N(C(=O)CCl)C(C(=O)NCCc3ccccc3)c3cccs3)cc2Cl)nn1)O/N=C1/C(=C2/C(=O)Nc3ccccc32)Nc2cc(Br)c(Br)cc21` (stereo not drawn): the pIC50 in assay [1], in assay [2], in assay [3] and in assay [4] was less than 5.00 throughout. Also, the inhibition in assay [5] was found to be 1.46%; in assay [6], 9.29%.

`O=C(CCn1cc(COc2ccc(N(C(=O)CCl)C(C(=O)NCCc3ccccc3)c3cccs3)cc2Cl)nn1)NCCCO/N=C1/C(=C2/C(=O)Nc3cc(F)ccc32)Nc2ccccc21` (stereo not drawn): the pIC50 in assay [1] was 5.40; in assay [2] it was 5.54; in assay [3], 5.18; in assay [4], 5.39. For the same compound, the values for the inhibition in assay [5] and in assay [6] were 28.9% and 36.8%, respectively.

Regarding `O=C(CCn1cc(COc2ccc(N(C(=O)CCl)C(C(=O)NCCc3ccccc3)c3cccs3)cc2Cl)nn1)O/N=C1/C(=C2/C(=O)Nc3ccccc32)Nc2ccc(Br)cc21` (stereo not drawn), the pIC50 in assay [1], in assay [2], in assay [3] and in assay [4] was less than 5.00 in each case. The figures for the inhibition in assay [5] and in assay [6] were 13.3% and 34.9%, respectively.

Take `COc1ccc2c(c1)NC(=C1\C(=O)Nc3ccccc31)/C2=N/OC(=O)CCn1cc(COc2ccc(N(C(=O)CCl)C(C(=O)NCCc3ccccc3)c3cccs3)cc2Cl)nn1` (stereo not drawn): the pIC50 was 5.41 in assay [1], 5.39 in assay [2], 5.34 in assay [3] and 5.10 in assay [4]. The inhibition amounted to 12.6% in assay [5] and 47% in assay [6].

Regarding `O=C(CCn1cc(COc2ccc(N(C(=O)CCl)C(C(=O)NCCc3ccccc3)c3cccs3)cc2Cl)nn1)NCCCO/N=C1/C(=C2/C(=O)Nc3cc(Br)c(Br)cc32)Nc2ccccc21` (stereo not drawn), the negative-log IC50 (pIC50) in assay [1], in assay [2], in assay [3] and in assay [4] was less than 5.00 throughout. Besides, the inhibition in assay [5] is 4.02%; in assay [6], 4.65%.

Consider `O=C(CCn1cc(COc2ccc(N(C(=O)CCl)C(C(=O)NCCc3ccccc3)c3cccs3)cc2Cl)nn1)O/N=C1/C(=C2/C(=O)Nc3ccccc32)Nc2cc(F)ccc21` (stereo not drawn), for which the pIC50 in assay [1] is 5.15; in assay [2], 5.17; in assay [3] it was 5.17; in assay [4], 5.09. For the same compound, the inhibition in assay [5] was 9.85%; in assay [6] it was 29.7%.

In the case of `O=C(CCn1cc(COc2ccc(N(C(=O)CCl)C(C(=O)NCCc3ccccc3)c3cccs3)cc2Cl)nn1)O/N=C1/C(=C2/C(=O)Nc3ccccc32)Nc2cc(Cl)c(Cl)cc21` (stereo not drawn), the pIC50 in assay [1], in assay [2], in assay [3] and in assay [4] was less than 5.00 in each case. Also, the inhibition in assay [5] stood at 5.9%; in assay [6] it was 10.4%.

Turning to `O=C(CCn1cc(COc2ccc(N(C(=O)CCl)C(C(=O)NCCc3ccccc3)c3cccs3)cc2Cl)nn1)O/N=C1/C(=C2/C(=O)Nc3ccccc32)Nc2cc(F)c(F)cc21` (stereo not drawn), the negative logarithm of the IC50 (pIC50) in assay [1], in assay [2], in assay [3] and in assay [4] was less than 5.00 in each case. In addition, the inhibition in assay [5] is 10.5%; in assay [6], 24.4%.

Consider `O=C(CCn1cc(COc2ccc(N(C(=O)CCl)C(C(=O)NCCc3ccccc3)c3cccs3)cc2Cl)nn1)NCCCO/N=C1/C(=C2/C(=O)Nc3ccc(Cl)cc32)Nc2ccccc21` (stereo not drawn), for which the pIC50 in assay [1] is 5.25; in assay [2] it was 5.37; in assay [3], 5.57; in assay [4], 5.32. Also, the inhibition turned out to be 28.1% in assay [5] and 39.4% in assay [6].

Regarding `COc1ccc2c(c1)C(=N\OC(=O)CCn1cc(COc3ccc(N(C(=O)CCl)C(C(=O)NCCc4ccccc4)c4cccs4)cc3Cl)nn1)/C(=C1/C(=O)Nc3ccccc31)N2` (stereo not drawn), the pIC50 in assay [1] was 5.33; in assay [2], 5.16; in assay [3], 5.15; in assay [4] it was 5.08. Also, the inhibition in assay [5] was determined as 14.1%; in assay [6] it was 22%.

On to `O=C(CCn1cc(COc2ccc(N(C(=O)CCl)C(C(=O)NCCc3ccccc3)c3cccs3)cc2Cl)nn1)NCCCO/N=C1/C(=C2/C(=O)Nc3cc(F)c(F)cc32)Nc2ccccc21` (stereo not drawn), for which the negative logarithm of the IC50 (pIC50) in assay [1] is less than 5.00; in assay [2], 5.02; in assay [3], 5.08; in assay [4], less than 5.00. The inhibition in assay [5] came to 1.12%; in assay [6], 16.1%.

For the compound `O=C(CCn1cc(COc2ccc(N(C(=O)CCl)C(C(=O)NCCc3ccccc3)c3cccs3)cc2Cl)nn1)O/N=C1/C(=C2/C(=O)Nc3ccccc32)Nc2ccc(Cl)cc21` (stereo not drawn), the pIC50 in assay [1] was 5.28; in assay [2], 5.35; in assay [3], 5.29; in assay [4] it was 5.15. The inhibition is 13.5% in assay [5] and 40.4% in assay [6].

As to `O=C(CCn1cc(COc2ccc(N(C(=O)CCl)C(C(=O)NCCc3ccccc3)c3cccs3)cc2Cl)nn1)NCCCO/N=C1/C(=C2/C(=O)Nc3ccccc32)Nc2ccccc21` (stereo not drawn), the pIC50 was 5.92 in assay [1], 5.83 in assay [2], 5.55 in assay [3] and 5.69 in assay [4]. The inhibition in assay [5] was determined as 22.1%; in assay [6], 52.1%.

Regarding `O=C(CCn1cc(COc2ccc(N(C(=O)CCl)C(C(=O)NCCc3ccccc3)c3cccs3)cc2Cl)nn1)NCCCO/N=C1/C(=C2/C(=O)Nc3ccc(F)cc32)Nc2ccccc21` (stereo not drawn), the pIC50 is 5.79 in assay [1], 5.70 in assay [2], 5.73 in assay [3] and 5.31 in assay [4]. For the same compound, the results for the inhibition in assay [5] and in assay [6] were 3.17% and 36.2%, respectively.

`O=C(CCn1cc(COc2ccc(N(C(=O)CCl)C(C(=O)NCCc3ccccc3)c3cccs3)cc2Cl)nn1)O/N=C1/C(=C2/C(=O)Nc3ccccc32)Nc2ccc(F)cc21` (stereo not drawn): the pIC50 is 5.49 in assay [1], 5.37 in assay [2], 5.20 in assay [3] and 5.25 in assay [4]. For the same compound, the inhibition in assay [5] was 19.6%; in assay [6], 21.4%.

Consider `O=C(CCn1cc(COc2ccc(N(C(=O)CCl)C(C(=O)NCCc3ccccc3)c3cccs3)cc2Cl)nn1)O/N=C1/C(=C2/C(=O)Nc3ccccc32)Nc2ccccc21` (stereo not drawn), for which the pIC50 was 5.10 in assay [1], 5.13 in assay [2], 5.11 in assay [3] and 5.09 in assay [4]. Moreover, the results for the inhibition in assay [5] and in assay [6] were 8.89% and 46.3%, respectively.

On to `O=C(CCn1cc(COc2ccc(N(C(=O)CCl)C(C(=O)NCCc3ccccc3)c3cccs3)cc2Cl)nn1)NCCCO/N=C1/C(=C2/C(=O)Nc3ccc(Br)cc32)Nc2ccccc21` (stereo not drawn), for which the pIC50 is less than 5.00 in assay [1], 5.06 in assay [2], less than 5.00 in assay [3] and less than 5.00 in assay [4]. Further, the values for the inhibition in assay [5] and in assay [6] were 15.5% and 21.3%, respectively.

Turning to `O=C(CCn1cc(COc2ccc(N(C(=O)CCl)C(C(=O)NCCc3ccccc3)c3cccs3)cc2Cl)nn1)O/N=C1/C(=C2/C(=O)Nc3ccccc32)Nc2cc(Br)ccc21` (stereo not drawn), the pIC50 in assay [1], in assay [2], in assay [3] and in assay [4] was less than 5.00 in each case. The results for the inhibition in assay [5] and in assay [6] were 5.41% and 14.7%, respectively.
